Test results from US12310963B2, “Pyrazole derivatives and use thereof” (Tarapeutics Science Inc., priority 2019, dated 2025).

Legend:
BaF3 = assay: Growth of parental BaF3 cells, Cell Titer-Glo, 72 h; type: cell-based; conditions: Mus musculus
Text: (§1) In this example, mouse primary B cell BaF3 (purchased from ATCC, U.S.A.) was used. In addition, in this example, mouse BaF3-tel-PDGFRα (stably expressing PDGFRα kinase), mouse BaF3-tel-PDGFRβ (stably expressing PDGFRβ kinase), BaF3-P210 (stably expressing ABL kinase), BaF3-P210-T315I (stably expressing ABL-T315I kinase), BaF3-FL-BRAF-V600E (stably expressing BRAF-V600E kinase), BaF3-TEL-cKIT (stably expressing cKIT kinase), BaF3-TEL-VEGFR2 (stably expressing VEGFR2 kinase), BaF3-TEL-FGFR2 (stably expressing FGFR2 kinase) were also used. The above-mentioned cell trains were all constructed in our laboratory by the method as follows. The sequences of human BCR-ABL (P210 or P210/T315I mutated), full-length BRAF-V600E, cKIT, VEGFR2, FGFR2, PDGFRα, PDGFRβ kinase region were amplified respectively via PCR, and inserted respectively into a MSCV-Puro vector (purchased from Clontech) having a N-terminal TEL fragment and/or NPM fragment and/or TPR fragment, and stably transferred into mouse BaF3 cells by the retroviral method, and the growth factor IL-3 was removed. Eventually, cell lines which are transferred into proteins depending on PDGFRα, PDGFRβ were obtained.
(§2) In this example, solutions of the test compound at different concentrations (0.000508 μM, 0.00152 μM, 0.00457 μM, 0.0137 μM, 0.0411 μM, 0.123 μM, 0.370 μM, 1.11 μM, 3.33 μM, 10 μM) were added to the above cells. The cells were incubated for 72 hours.

[1] = system: BaF3-tel-PDGFRβ (stably expressing PDGFRβ kinase); assay: Growth of BaF3-tel-PDGFRβ cells, Cell Titer-Glo, 72 h; type: cell-based, mouse
Text: as §1, §2

[2] = system: BaF3-tel-PDGFRα (stably expressing PDGFRα kinase); assay: Growth of BaF3-tel-PDGFRα cells, Cell Titer-Glo, 72 h; type: cell-based, mouse
Text: as §1, §2

Row | SMILES | GI50 (BaF3) | GI50 [1] | GI50 [2]
1 | Cc1ccc(NC(=O)c2cccc(F)n2)cc1-n1cc(-c2cncc(N3CCN(C)CC3)c2)cn1 [Compound 14, 6-fluoro-N-(4-methyl-3-(4-(5-(4-methylpiperazin-1-yl)pyridin-3-yl)-1H-pyrazol-1-yl)phenyl)picolinamide] | 8400 nM | < 1.5 nM | < 1.5 nM
2 | Cc1ccc(NC(=O)c2ccnc(C(F)(F)F)c2)cc1-n1cc(-c2cncc(N3CCN(C)CC3)c2)cn1 [Compound 2, N-(4-methyl-3-(4-(5-(4-methylpiperazin-1-yl)pyridin-3-yl)-1H-pyrazol-1-yl)phenyl)-2-(trifluoromethyl)isonicotinamide] | 9290 nM | 40 nM | 2.8 nM
3 | Cc1ccc(NC(=O)c2cccc(C(F)(F)F)n2)cc1-n1cc(-c2cnccc2OCC2CCCO2)cn1 (stereo not shown) [Compound 8, N-(4-methyl-3-(4-(4-((tetrahydrofuran-2-yl)methoxy)pyridin-3-yl)-1H-pyrazol-1-yl)phenyl)-6-(trifluoromethyl)picolinamide] | > 10000 nM | 1.3 nM | –
4 | Cc1ccc(NC(=O)c2ccnc(C(F)(F)F)c2)cc1-n1cc(-c2cnccc2OCC2CCOCC2)cn1 [Compound 3, N-(4-methyl-3-(4-(4-((tetrahydropyran-4-yl)methoxy)pyridin-3-yl)-1H-pyrazol-1-yl)phenyl)-2-(trifluoromethyl)isonicotinamide] | 6500 nM | 1.4 nM | 1.4 nM
5 | Cc1ccc(NC(=O)c2cncc(C(F)(F)F)c2)cc1-n1cc(-c2cncc(N3CCN(C)CC3)c2)nn1 [Compound 20, N-(4-methyl-3-(4-(5-(4-methylpiperazin-1-yl)pyridin-3-yl)-1H-1,2,3-triazol-1-yl)phenyl)-5-(trifluoromethyl)nicotinamide] | 5070 nM | < 10 nM | < 10 nM
6 | Cc1ccc(NC(=O)c2cncc(C(F)(F)F)c2)cc1-n1cc(-c2cncc(N3CC4(COC4)C3)c2)nn1 [Compound 40, N-(3-(4-(5-(2-oxa-6-aza-spiro[3.3]hept-6-yl]pyridin-3-yl)-1H-1,2,3-triazol-1-yl)-4-methylphenyl)-5-(trifluoromethyl)nicotinamide] | 9990 nM | < 10 nM | < 10 nM
7 | Cc1ccc(NC(=O)c2ccnc(C(F)(F)F)c2)cc1-n1cc(-c2cncc(N3CC4(COC4)C3)c2)nn1 [Compound 39, N-(3-(4-(5-(2-oxa-6-aza-spiro[3.3]hept-6-yl]pyridin-3-yl)-1H-1,2,3-triazol-1-yl)-4-methylphenyl)-2-(trifluoromethyl)isonicotinamide] | > 10000 nM | < 10 nM | < 10 nM
8 | Cc1ccc(NC(=O)c2cc(C(F)(F)F)ccn2)cc1-n1cc(-c2cncc(N3CCN(C)CC3)c2)cn1 [Compound 15, N-(4-methyl-3-(4-(5-(4-methylpiperazin-1-yl)pyridin-3-yl)-1H-pyrazol-1-yl)phenyl)-4-(trifluoromethyl)picolinamide] | 3900 nM | < 1.5 nM | < 1.5 nM
9 | Cc1ccc(NC(=O)c2ccnc(C(F)(F)F)c2)cc1-n1cc(-c2cncc(OC3COC3)c2)cn1 [Compound 7, N-(4-methyl-3-(4-(5-(oxetan-3-yloxy)pyridin-3-yl)-1H-pyrazol-1-yl)phenyl)-2-(trifluoromethyl)isonicotinamide] | > 10000 nM | 1 nM | < 0.3 nM
10 | Cc1ccc(NC(=O)c2cc(C(F)(F)F)ccn2)cc1-n1cc(-c2cncc(N3CC4(COC4)C3)c2)cn1 [Compound 35, N-(3-(4-(5-(2-oxa-6-aza-spiro[3.3]hept-6-yl]pyridin-3-yl)-1H-pyrazol-1-yl)-4-methylphenyl)-4-(trifluoromethyl)picolinamide] | 5840 nM | < 10 nM | < 10 nM
11 | Cc1ccc(NC(=O)c2cccc(C(F)(F)F)n2)cc1-n1cc(-c2cnccc2OC2COC2)cn1 [Compound 6, N-(4-methyl-3-(4-(4-(oxetan-3-yloxy)pyridin-3-yl)-1H-pyrazol-1-yl)phenyl)-6-(trifluoromethyl)picolinamide] | > 10000 nM | 1 nM | < 0.3 nM
12 | Cc1ccc(NC(=O)c2cncc(C(F)(F)F)c2)cc1-n1cc(-c2cncc(N3CCN(C)CC3)c2)cn1 [Compound 16, N-(4-methyl-3-(4-(5-(4-methylpiperazin-1-yl)pyridin-3-yl)-1H-pyrazol-1-yl)phenyl)-5-(trifluoromethyl)nicotinamide] | > 10000 nM | < 1.5 nM | < 1.5 nM
13 | Cc1ccc(NC(=O)c2cccc(Cl)n2)cc1-n1cc(-c2cncc(N3CCN(C)CC3)c2)nn1 [Compound 22, 6-chloro-N-(4-methyl-3-(4-(5-(4-methylpiperazin-1-yl)pyridin-3-yl)-1H-1,2,3-triazol-1-yl)phenyl)picolinamide] | 960 nM | < 10 nM | < 10 nM
14 | Cc1ccc(NC(=O)c2cccc(C(F)(F)F)n2)cc1-n1cc(-c2cnccc2OCCN2CCOCC2)cn1 [Compound 4, N-(4-methyl-3-(4-(4-(2-morpholinoethoxy)pyridin-3-yl)-1H-pyrazol-1-yl)phenyl)-6-(trifluoromethyl)picolinamide] | ~10000 nM | 3.2 nM | < 0.3 nM
15 | Cc1ccc(NC(=O)c2ccnc(C(F)(F)F)c2)cc1-n1cc(-c2cnccc2OCC2CCCC2)cn1 [Compound 11, N-(3-(4-(4-(cyclopentylmethoxy)pyridin-3-yl)-1H-pyrazol-1-yl)-4-methylphenyl)-2-(trifluoromethyl)isonicotinamide] | > 10000 nM | 1.1 nM | –
16 | Cc1ccc(NC(=O)c2cccc(C(F)(F)F)n2)cc1-n1cc(-c2cnccc2OCC2CCOCC2)cn1 [Compound 13, N-(4-methyl-3-(4-(4-((tetrahydropyran-4-yl)methoxy)pyridin-3-yl)-1H-pyrazol-1-yl)phenyl)-6-(trifluoromethyl)picolinamide] | > 10000 nM | 5.5 nM | 1.6 nM
17 | Cc1ccc(NC(=O)c2ccnc(C(F)(F)F)c2)cc1-n1cc(-c2cnccc2OCC2CCCO2)cn1 (stereo not shown) [Compound 9, N-(4-methyl-3-(4-(4-((tetrahydrofuran-2-yl)methoxy)pyridin-3-yl)-1H-pyrazol-1-yl)phenyl)-2-(trifluoromethyl)isonicotinamide] | > 10000 nM | < 0.3 nM | –
18 | Cc1ccc(NC(=O)c2cccc(C(F)(F)F)n2)cc1-n1cc(-c2cncc(N3CC4(COC4)C3)c2)nn1 [Compound 38, N-(3-(4-(5-(2-oxa-6-aza-spiro[3.3]hept-6-yl]pyridin-3-yl)-1H-1,2,3-triazol-1-yl)-4-methylphenyl)-6-(trifluoromethyl)picolinamide] | > 10000 nM | < 10 nM | < 10 nM
19 | Cc1ccc(NC(=O)c2cccc(C(F)(F)F)n2)cc1-n1cc(-c2cnccc2OCC2CCCC2)cn1 [Compound 10, N-(3-(4-(4-(cyclopentylmethoxy)pyridin-3-yl)-1H-pyrazol-1-yl)-4-methylphenyl)-6-(trifluoromethyl)picolinamide] | > 10000 nM | 62 nM | –
20 | Cc1ccc(NC(=O)c2ccnc(C(F)(F)F)c2)cc1-n1cc(-c2cncc(N3CCOCC3)c2)cn1 [Compound 12, N-(4-methyl-3-(4-(5-morpholinopyridin-3-yl)-1H-pyrazol-1-yl)phenyl)-2 (trifluoromethyl)isonicotinamide] | ~10000 nM | 1 nM | –
